The values below come from patent US11136321B2, “Tricyclic compounds” (ALIGOS THERAPEUTICS, INC., priority 2019, dated 2021).

Usually EC50 stands for the concentration needed to bring the measured effect to its halfway point. A higher EC50 goes with weaker potency.

Bounds are passed on as bounds.

The test system of the first experiment is HBV. As to the kind of experiment: HBV-DNA antiviral assay using HepG2.117 cells. It is filed as cell-based, genotype D HBV. The note with it: Hepatitis B virus, 72 h, intracellular HBV DNA by qPCR, 3 days incubation. An outline of the steps:
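HepG2.117 cells (genotype D HBV, Tet-off) seeded without doxycycline and treated for 3 days at 9 concentrations (4-fold dilutions) in 2% DMSO. Intracellular HBV DNA measured by qPCR against a standard curve, with viability from ATPlite run in parallel. EC50, EC90 and CC50 fitted relative to DMSO controls.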
On the technique in general: Quantitative PCR measures a nucleic acid by following its amplification.
Consider `Cc1cnn2c3c(c(=O)n(-c4ccccc4)c12)CCN(C(=O)c1ccc(Br)c(F)c1)C3` [Compound 8, 12-(4-bromo-3-fluorobenzoyl)-5-methyl-7-phenyl-2,3,7,12-tetraazatricyclo[7.4.0.0^[2,6]]trideca-1(9),3,5-trien-8-one], for which the EC50 lay in the range of 0.5 to 5 µM. Turning to `CNC(=O)c1ccc(-n2c(=O)c3c(n4ncc(NCc5ccc(F)cc5)c24)CN(C(=O)c2ccc(Br)c(C#N)c2)CC3)cc1` [Compound 70, 4-[12-(4-bromo-3-cyano-benzoyl)-5-[(4-fluorophenyl)methylamino]-8-oxo-2,3,7,12-tetrazatricyclo [7.4.0.0 2,6]trideca-1(9),3,5-trien-7-yl]-N-methyl-benzamide], the EC50 was 0.1 to 0.5 µM. On to `O=C(NCc1ccccc1)c1cnn2c3c(c(=O)n(-c4ccccc4)c12)CCN(C(=O)c1ccc(Cl)c(Cl)c1)C3` [Compound 20, N-benzyl-12-(3,4-dichlorobenzoyl)-8-oxo-7-phenyl-2,3,7,12-tetrazatricyclo [7.4.0.0^2,6] trideca-1(9),3,5-triene-5-carboxamide], for which the EC50 was > 5 µM.

The same experiment, now with this note: intracellular HBV DNA by qPCR, 3 days incubation.
Regarding `COc1ccc(-n2c(=O)c3c(n4ncc(Cc5ccccc5)c24)CN(C(=O)c2ccc(Cl)c(Cl)c2)CC3)cc1` [Compound 24, 5-benzyl-12-(3,4-dichlorobenzoyl)-7-(4-methoxyphenyl)-2,3,7,12-tetraazatricyclo[7.4.0.0^[2,6]]trideca-1(9),3,5-trien-8-one], the EC50 was in the range of 0.1 to 0.5 µM. `O=C(c1ccc(Br)c(Cl)c1)N1CCc2c(n3nccc3n(-c3ccccc3)c2=O)C1` [Compound 5, 12-(4-bromo-3-chlorobenzoyl)-7-phenyl-2,3,7,12-tetraazatricyclo[7.4.0.0^[2,6]]trideca-1(9),3,5-trien-8-one]: the EC50 fell in the range of 0.5 to 5 µM.

Consider `COc1ccc(-n2c(=O)c3c(n4ncc(Nc5ccccc5)c24)CN(C(=O)c2ccc(Br)c(Cl)c2)CC3)cc1` [Compound 32, 12-(4-bromo-3-chlorobenzoyl)-7-(4-methoxyphenyl)-5-(phenylamino)-2,3,7,12-tetraazatricyclo[7.4.0.0^[2,6]]trideca-1(9),3,5-trien-8-one], for which the EC50 is ≤ 0.1 µM.
